The target of one experiment is T1, hSTING H232 variant (Homo sapiens, UniProt Q86WV6).
T1 construct: host or cells: THP1-Dual cells (human monocytes) with knocked-in hSTING H232
The experiment is described as follows: STING activation, THP1-Dual IRF3 reporter assay, hSTING-H232 cells. Conditions: IRF3 luciferase reporter, 24 hours, read-out: STING activity using hSTING-H232 cells, H232 EC50. The experiment is classed as cell-based. As to the method: (§1) To assess potency of STING agonist compounds described herein, THP1-Dual™ Cells (NF—KB-SEAP and IRF-Lucia luciferase reporter monocytes, InvivoGen) were used. The reporter cells were knocked-in either of hSTING-WT (R232, #thpd-r232), HAQ variant (#thpd-nfis), or H232 variant (#thpd-h232). All cells were cultured at 37° C. in a humidified incubator at 5% CO2 and maintained in RPMI 1640 medium (Gibco, #22400097) supplemented with 10% heat-inactivated FBS and 1×Pen-Strep (Gibco, #15140122). To measure STING agonist-mediated IRF3 activity, the cells (9.0×10^4 cells per well) were seeded in a flat-bottomed 96-well plate. The next day, the cells were treated with compounds in a serial dilution for 24 hours. Subsequently, 20 μL of the cell culture supernatant and 50 μL of the QUANTI-Luc™ reagent (InvivoGen, #rep-qlc) were mixed in a 96-well white plate and then, luciferase activity was measured using an EnVision Xcite multilabel reader. The data were analyzed using Prism8 software (4-parameter).
(§2) The potency of STING agonist compounds was evaluated by the activation of Type I Interferon pathway using THP-1 IRF3 reporter assay.
For orientation: In a reporter assay the amount or activity of a reporter protein is the signal.

A further experiment concerns the target T2, hSTING HAQ variant (Homo sapiens, UniProt Q86WV6, G230A/H232R/R293Q/R71H).
T2 construct: host or cells: THP1-Dual cells (human monocytes)
Description: STING activation, THP1-Dual IRF3 reporter assay, hSTING-HAQ cells. Format: cell-based. The conditions noted are these: IRF3 luciferase reporter, 24 hours, read-out: STING activity using hSTING-HAQ cells, HAQ EC50. Here is the method: as §1, §2

In the next experiment the target is T3, human STING (Homo sapiens, UniProt Q86WV6, H232R).
T3 construct: purchased Cisbio 64BDSTGPEG
The experiment is described as follows: Direct STING binding, HUMAN STING WT BINDING KIT (Cisbio). The conditions noted are these: direct binding to human STING WT protein in vitro; read-out: Binding potency EC50. An excerpt:
Additionally, for analysis of direct binding potency of STING agonist compounds described herein to human STING, HUMAN STING WT BINDING KIT (Cisbio, #64BDSTGPEG) was used according to the manufacture's instruction.

The target in the next experiment is T4, hSTING-WT (R232) (Homo sapiens, UniProt Q86WV6, H232R).
T4 construct: host or cells: THP1-Dual cells (human monocytes) with knocked-in hSTING R232
Description: STING activation, THP1-Dual IRF3 reporter assay, hSTING-R232 cells. Format: cell-based. Conditions: IRF3 luciferase reporter, 24 hours, read-out: STING activity using hSTING-R232 cells EC50. In a few lines:
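THP1-Dual monocytes carrying knocked-in hSTING-WT (R232), H232 or HAQ variants were seeded at 9.0×10^4 cells per well and treated next day with serially diluted compounds for 24 h. Secreted IRF-Lucia luciferase in the supernatant was read by luminescence, and EC50 values were fitted with a 4-parameter model.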

One compound from patent publication US20260167659A1, “STING AGONISTS” (LIGACHEM BIOSCIENCES INC., priority 2022, published 2026) can be followed below.

T2 sequence (Q86WV6 whole entry R71H/G230A/H232R/R293Q): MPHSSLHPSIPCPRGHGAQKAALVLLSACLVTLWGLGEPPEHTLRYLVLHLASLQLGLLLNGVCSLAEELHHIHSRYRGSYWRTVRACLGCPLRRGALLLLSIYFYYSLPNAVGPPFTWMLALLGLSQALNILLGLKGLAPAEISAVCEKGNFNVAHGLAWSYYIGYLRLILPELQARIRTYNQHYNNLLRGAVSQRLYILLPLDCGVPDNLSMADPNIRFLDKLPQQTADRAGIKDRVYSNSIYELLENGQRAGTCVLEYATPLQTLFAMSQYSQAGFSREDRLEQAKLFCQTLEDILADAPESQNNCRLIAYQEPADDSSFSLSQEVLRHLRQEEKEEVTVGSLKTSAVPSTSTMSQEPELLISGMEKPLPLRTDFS
T4 sequence (Q86WV6 whole entry H232R): as the sequence (Q86WV6 whole entry R71H/G230A/H232R/R293Q) above, with H71R, A230G, Q293R counted along it
T3 sequence (Q86WV6 whole entry H232R): as the sequence (Q86WV6 whole entry R71H/G230A/H232R/R293Q) above, with H71R, A230G, Q293R counted along it

The term EC50 denotes the concentration giving half of the maximal effect. `CCn1nc(C)cc1C(=O)Nc1nc2cc(C(N)=O)cc(OC/C=C/Cn3cc(NC(=O)OCc4ccc(O[C@@H]5O[C@H](C(=O)O)[C@@H](O)[C@H](O)[C@H]5O)c(C(=O)NCCOCCOCCN(C)C)c4)cn3)c2n1C/C=C/Cn1c(NC(=O)c2cc(C)nn2CC)nc2cc(C(N)=O)cc(OCCCC(=O)O)c21` [Compound 313]: the concentration giving a half-maximal response (EC50) at hSTING H232 variant was 216 nM; at hSTING HAQ variant, 115 nM; on human STING it was 0.08 nM; at hSTING-WT (R232), 68.3 nM.
